Km data for one compound are collected here from publication PMC6038183 (BMC Genomics, 2018).

The experiment has as its target OppA (main ectoATPase of M. hominis PG21) (Metamycoplasma hominis, UniProt D1J7T8). As to conditions: intact cells of parental strain PG21 (whole-cell ectoATPase activity, other ATPases not excluded); pH 7.5, 37 °C, 4 h, 0-3 mM ATP.

OppA (main ectoATPase of M. hominis PG21), sequence (D1J7T8 entry or part of it): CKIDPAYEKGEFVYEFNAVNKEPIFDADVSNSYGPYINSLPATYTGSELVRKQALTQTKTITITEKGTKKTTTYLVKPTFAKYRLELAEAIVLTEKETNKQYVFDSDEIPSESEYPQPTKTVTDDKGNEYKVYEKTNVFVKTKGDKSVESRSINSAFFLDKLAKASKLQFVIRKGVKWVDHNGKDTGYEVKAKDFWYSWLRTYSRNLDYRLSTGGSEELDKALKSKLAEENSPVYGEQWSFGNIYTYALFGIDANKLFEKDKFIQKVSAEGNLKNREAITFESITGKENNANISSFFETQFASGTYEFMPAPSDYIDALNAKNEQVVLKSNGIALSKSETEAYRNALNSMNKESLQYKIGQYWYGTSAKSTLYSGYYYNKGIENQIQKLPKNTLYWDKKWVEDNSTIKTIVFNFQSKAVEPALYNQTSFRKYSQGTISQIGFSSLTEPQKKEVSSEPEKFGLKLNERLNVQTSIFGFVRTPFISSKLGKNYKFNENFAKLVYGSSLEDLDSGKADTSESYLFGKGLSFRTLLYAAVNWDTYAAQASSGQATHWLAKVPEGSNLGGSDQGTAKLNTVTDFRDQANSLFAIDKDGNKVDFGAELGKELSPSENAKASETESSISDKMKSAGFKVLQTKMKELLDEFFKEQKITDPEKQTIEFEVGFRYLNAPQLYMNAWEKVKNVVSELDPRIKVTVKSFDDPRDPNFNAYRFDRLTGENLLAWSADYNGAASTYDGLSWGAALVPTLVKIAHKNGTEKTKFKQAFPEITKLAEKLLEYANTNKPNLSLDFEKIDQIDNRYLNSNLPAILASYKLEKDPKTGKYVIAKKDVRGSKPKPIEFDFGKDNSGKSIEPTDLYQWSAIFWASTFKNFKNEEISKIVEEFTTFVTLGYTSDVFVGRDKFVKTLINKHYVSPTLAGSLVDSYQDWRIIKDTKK

As to `Nc1ncnc2c1ncn2[C@@H]1O[C@H](COP(=O)(O)OP(=O)(O)OP(=O)(O)O)[C@@H](O)[C@H]1O` [ATP], the Km result is reported as “the parental PG21 strain were tested for ATPase activity”.
